In patent US20240368084A1, “STING MODULATORS, COMPOSITIONS, AND METHODS OF USE” (University of South Florida, priority 2021, published 2024):

Biological target: His-labeled STING (Homo sapiens, UniProt Q86WV6)
Assay: Microscale thermophoresis (MST) binding assay
Conditions: for Confidence: confidence class by MST shift units; for Dissociation Constant: MST, incubating with 50 nM 2,3-cGAMP
Protocol: Nanotemper Monolith NT.115 labeled thermophoresis machine was used with standard treated capillary tubes using samples comprised of labeled protein and titrations of small molecule in 1×PBS. […] Detection of the protein was performed using the blue detection channel with LED excitation power set to 90% and MST set to high allowing 3 s prior to MST on to check for initial fluorescence differences, 25 s for thermophoresis, and 3 s for regeneration after MST off.
Detection of the protein was performed using the blue detection channel with LED excitation power set to 90% and MST set to high allowing 3 s prior to MST on to check for initial fluorescence differences, 25 s for thermophoresis, and 3 s for regeneration after MST off. Analysis was performed using M.O. Affinity Analysis Software with difference between initial fluorescence measured in the first 5 s as compared with thermophoresis at 15 s at 15 different analyte concentrations ranging from 100 zM to 100 μM and exported into Graphpad Prism v.8 using a Log inhibitor v. response 4 parameter fit.
Confidence is categorized as follows: 1=low confidence (<2 MST shift unit−non-statistical); 2=mid confidence (2-3 MST shift units−intermediate); 3=high confidence ([…]−statistical). Dissociation constants are categorized as follows: A<1 μM; 1 μM≤B<100 μM; […]; 10 μM≤D<100 μM.
Reference compounds were assayed using the same protocol.

Chain of His-labeled STING (Q86WV6 whole entry H232R): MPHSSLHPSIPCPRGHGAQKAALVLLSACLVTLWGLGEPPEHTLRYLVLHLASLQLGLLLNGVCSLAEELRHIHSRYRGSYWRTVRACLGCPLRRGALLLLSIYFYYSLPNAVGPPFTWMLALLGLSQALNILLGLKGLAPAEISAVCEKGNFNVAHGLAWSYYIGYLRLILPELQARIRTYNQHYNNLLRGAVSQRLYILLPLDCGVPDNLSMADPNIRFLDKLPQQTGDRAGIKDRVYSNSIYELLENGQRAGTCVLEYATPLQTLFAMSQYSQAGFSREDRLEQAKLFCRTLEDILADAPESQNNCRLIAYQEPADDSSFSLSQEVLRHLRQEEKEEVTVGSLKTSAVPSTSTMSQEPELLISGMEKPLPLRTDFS

Dissociation Constant	Structure (SMILES)	Confidence
–	Cc1c(Cl)cccc1Nc1ncccc1COCC(O)CO (stereo not drawn) [Compound 1]	1 (1=low confidence (<2 MST shift unit−non-statistical))
–	Cc1c(Cl)cccc1Nc1ncccc1CO [Compound 4]	2 (2=mid confidence (2-3 MST shift units−intermediate))
–	COC(=O)c1cccnc1Nc1cccc(Cl)c1C [Compound 9]	3 (3=high confidence (>2 MST shift units−statistical))
Low R^2	CCOC(=O)c1cccnc1Nc1cccc(Cl)c1C [Compound 10]	1 (1=low confidence (<2 MST shift unit−non-statistical))
–	CCCOC(=O)c1cccnc1Nc1cccc(Cl)c1C [Compound 11]	1 (1=low confidence (<2 MST shift unit−non-statistical))
–	C#CCOC(=O)c1cccnc1Nc1cccc(Cl)c1C [Compound 13]	2 (2=mid confidence (2-3 MST shift units−intermediate))
–	CNC(=O)c1cccnc1Nc1cccc(Cl)c1C [Compound 14]	2 (2=mid confidence (2-3 MST shift units−intermediate))
–	CCNC(=O)c1cccnc1Nc1cccc(Cl)c1C [Compound 15]	1 (1=low confidence (<2 MST shift unit−non-statistical))
–	CCCNC(=O)c1cccnc1Nc1cccc(Cl)c1C [Compound 16]	2 (2=mid confidence (2-3 MST shift units−intermediate))
–	C=CCNC(=O)c1cccnc1Nc1cccc(Cl)c1C [Compound 17]	1 (1=low confidence (<2 MST shift unit−non-statistical))
–	Cc1c(Cl)cccc1Nc1ncccc1C(=O)OCC(O)CO (stereo not drawn) [Compound 19]	1 (1=low confidence (<2 MST shift unit−non-statistical))
–	CCCCC(=O)c1cccnc1Nc1cccc(Cl)c1C [Compound 21]	2 (2=mid confidence (2-3 MST shift units−intermediate))
–	Cc1c(Br)cccc1Nc1ncccc1C(=O)O [Compound 23]	3 (3=high confidence (>2 MST shift units−statistical))
–	COC(=O)c1cccnc1Nc1cccc(Br)c1C [Compound 24]	1 (1=low confidence (<2 MST shift unit−non-statistical))
–	Cc1c(Nc2ncccc2C(=O)O)cccc1C(F)(F)F [Compound 27]	3 (3=high confidence (>2 MST shift units−statistical))
No Binding	Cc1c(Cl)cccc1Nc1ccccc1C(=O)O [Compound 36, Tolfenamic acid, reference compound]	1 (1=low confidence (<2 MST shift unit−non-statistical))
–	Cc1c(Cl)cccc1Nc1ncccc1C(=O)OCCCOC(=O)c1cccnc1Nc1cccc(Cl)c1C [Compound 41]	1 (1=low confidence (<2 MST shift unit−non-statistical))
–	Cc1c(Br)cccc1Nc1ncccc1C(=O)OCC(O)CO (stereo not drawn) [Compound 42]	2 (2=mid confidence (2-3 MST shift units−intermediate))
–	Cc1c(F)cccc1Nc1ncccc1C(=O)OCC(O)CO (stereo not drawn) [Compound 43]	1 (1=low confidence (<2 MST shift unit−non-statistical))
–	COC(=O)c1cccnc1Nc1cccc(F)c1C [Compound 44]	1 (1=low confidence (<2 MST shift unit−non-statistical))
No Binding	Cc1cccc(Nc2ccccc2C(=O)O)c1C [Compound 45]	1 (1=low confidence (<2 MST shift unit−non-statistical))
No Binding	Cc1cccc(Nc2ccccc2C(=O)OCC(O)CO)c1C (stereo not drawn) [Compound 46]	1 (1=low confidence (<2 MST shift unit−non-statistical))
No Binding	Cc1cccc(Nc2ncccc2C(=O)O)c1C [Compound 47]	1 (1=low confidence (<2 MST shift unit−non-statistical))
No Binding	Cc1cccc(Nc2ncccc2C(=O)OCC(O)CO)c1C (stereo not drawn) [Compound 48]	1 (1=low confidence (<2 MST shift unit−non-statistical))
–	Cc1c(Cl)cccc1Nc1ncccc1C(=O)OCCCCOC(=O)c1cccnc1Nc1cccc(Cl)c1C [Compound 49]	1 (1=low confidence (<2 MST shift unit−non-statistical))
–	Cc1c(Cl)cccc1Nc1ncccc1C(=O)OCCCCCOC(=O)c1cccnc1Nc1cccc(Cl)c1C [Compound 50]	3 (3=high confidence (>2 MST shift units−statistical))
–	NC(=O)NC1NC(=O)NC1=O (stereo not drawn) [Compound 52]	3 (3=high confidence (>2 MST shift units−statistical))
